Reference: US7531344B2, “Induction and stabilization of enzymatic activity in microorganisms” (Georgia State University Research Foundation, Inc., priority 2006, dated 2009)
Blank lines part the entries; values can stand above or below the molecule they belong to.

Key:
asparaginase I [1] = test: Effect of media composition and inducer on asparaginase I, Example 10; format: cell-based, Rhodococcus sp. DAP 96253; conditions: for effect of medium additive on asparaginase I activity: maltose added to YEMEA, Cobalt 5-50 ppm with glucose or maltose; for Asparaginase I levels / ability to induce asparaginase I activity: inducer 1000 ppm
Excerpt: (§1) In certain embodiments, activity can be referred to in terms of “units” per mass of enzyme or cells (typically based on the dry weight of the cells, e.g., units/mg cdw). A “unit” generally refers to the ability to convert a specific content of a compound to a different compound under a defined set of conditions as a function of time. In specific embodiments, 1 “unit” of nitrile hydratase activity can relate to the ability to convert 1 μmol of acrylonitrile to its corresponding amide per minute, per milligram of cells (dry weight) at a of pH 7.0 and a temperature of 30° C. Similarly, 1 unit of amidase activity can relate to the ability to convert 1 μmol of acrylamide to its corresponding acid per minute, per milligram of cells (dry weight) at a pH of 7.0 and a temperature of 30° C. Further, 1 unit of asparaginase I activity can relate to the ability to convert 1 μmol of asparagine to its corresponding acid per minute, per milligram of cells (dry weight) at a pH of 7.0 and a temperature of 30° C.
Testing was performed to evaluate the effect on asparaginase I activity based upon the inducer used. In particular, testing was performed using asparagine, glutamine, succinonitrile, and isovaleronitrile as inducers (all added at 1000 ppm each).

asparaginase I [2] = test: Asparaginase I production, Example 8; format: cell-based; conditions: asparagine and glutamine 3.8 mM
Excerpt: as §1
The induction of asparaginase I production in various nitrile hydratase producing microorganisms was evaluated. All strains were grown on YEMEA medium containing 7.5 g/L of urea and 10 ppm cobalt (provided as cobalt chloride) supplemented with asparagine (ASN), glutamine (GLN), or both asparagine and glutamine. The asparagine and glutamine were added 3.8 mM. As a comparative, enzyme production was also evaluated with supplementation was with acrylonitrile (AN), acrylamide (AMD) or acrylonitrile and acrylamide. Growth temperature was in the range of 26° C. to 30° C.

nitrile hydratase [3] = test: Nitrile hydratase induction by inducers, Example 1; format: cell-based, Rhodococcus sp., strain DAP 96253; conditions: for nitrile hydratase induction compared with acrylonitrile: Table 1 comparison
Excerpt: as §1
(§2) The induction of nitrile hydratase activity and amidase activity in Rhodococcus sp., strain DAP 96253, was evaluated using multiple types of inducers (1000 ppm). Three different samples were cultured in YEMEA medium containing 10 ppm cobalt and 7.5 g/L urea and supplemented with acrylonitrile, asparagine, or glutamine. The specific nitrile hydratase activity and the specific amidase activity in each sample was evaluated, and the results are provided below in Table 1, with activities provided in units/mg cdw (cell dry weight). One unit of nitrile hydratase activity relates to the ability to convert 1 μmol of acrylonitrile to its corresponding amide per minute, per milligram of cells (dry weight) at a of pH 7.0 and a temperature of 30° C. One unit of amidase activity relates to the ability to convert 1 μmol of acrylamide to its corresponding acid per minute, per milligram of cells (dry weight) pH of 7.0 and a temperature of 30° C.

amidase [4] = test: Amidase induction by inducers, Example 1; format: cell-based, Rhodococcus sp., strain DAP 96253; conditions: for amidase activity greater than the amidase activity resulting from the use of acrylonitrile: relative to acrylonitrile induction, Table 1
Excerpt: as §1, §2

amidase [5] = test: 20 liter fermentation with asparagine feed: amidase; format: cell-based, Rhodococcus sp. DAP 96253; conditions: asparagine 0.15M at 1000 μl/min from t=10 h
Method: (§3) Rhodococcus sp. DAP 96253 were grown using biphasic medium as the source of inoculum for a 20 liter fermentation. The supplemental addition of medium/carbohydrate (either YEMEA, dextrose or maltose) was made to the modified R2A medium, containing cottonseed hydrolysate substituted for the Proteos Peptone 3 (PP3). Asparagine (0.15M solution) was added at a continuous rate of 1000 μl/min beginning at t=10 h. At the end of the fermentation run, 159 units per milligram cell dry weight of acrylonitrile specific nitrile hydratase, 22 units of amidase per milligram cell dry weight, and 16 g/l cell packed wet weight were produced.

[6] = test system: acrylonitrile specific nitrile hydratase; test: 20 liter fermentation with asparagine feed: nitrile hydratase; format: cell-based, Rhodococcus sp. DAP 96253; conditions: asparagine 0.15M at 1000 μl/min from t=10 h
Method: as §3

asparaginase I [7] = test: 20 liter fermentation with asparagine feed: asparaginase I; format: cell-based, Rhodococcus sp. DAP 96253; conditions: asparagine 0.15M at 1000 μl/min from t=10 h
Method: as §3

nitrile hydratase [8] = test: Nitrile hydratase production, Example 7; format: cell-based; conditions: Pseudomonas chloroaphis ATCC 43051; 30 °C; supplement 3.8 mM
Method: (§4) In certain embodiments, activity can be referred to in terms of “units” per mass of enzyme or cells (typically based on the dry weight of the cells, e.g., units/mg cdw). A “unit” generally refers to the ability to convert a specific content of a compound to a different compound under a defined set of conditions as a function of time. […] The induction of nitrile hydratase production and amidase production in various nitrile hydratase producing microorganisms was evaluated. […] The asparagine and glutamine were added 3.8 mM. As a comparative, enzyme production with no supplementation was also tested. Growth temperature was in the range of 26° C. to 30° C.

amidase [9] = test: Amidase production, Example 7; format: cell-based; conditions: Pseudomonas chloroaphis ATCC 43051; 30 °C; supplement 3.8 mM
Method: as §4

[10] = Rhodococcus sp. DAP 96253, YEMEA, 10 ppm cobalt, 7.5 g/L urea, inducer 1000 ppm
[11] = YEMEA - Glucose, Without Cobalt
[12] = YEMEA - Maltose, Without Cobalt

- effect of medium additive on asparaginase I activity (asparaginase I [1]): Higher asparaginase I activity
SMILES: OC[C@H]1O[C@H](O[C@H]2[C@H](O)[C@@H](O)C(O)O[C@@H]2CO)[C@H](O)[C@@H](O)[C@@H]1O (mixture of isomers) [maltose]

SMILES: C=CC#N [Acrylonitrile, acrylonitrile]
- Asparaginase I Level Based on Growth Medium Supplementation (asparaginase I [2]; Brevibacterium ketoglutaricum ATCC 21533, 30 °C): 14.6 Units/mg cdw
- Asparaginase I Level Based on Growth Medium Supplementation (asparaginase I [2]; Pseudomonas chloroaphis ATCC 13985, 26 °C): 2 Units/mg cdw
- Asparaginase I Level Based on Growth Medium Supplementation (asparaginase I [2]; Rhodococcus rhodochrous DAP 96622 (ATCC 55898), 26 °C): 8.2 Units/mg cdw
- Asparaginase I Level Based on Growth Medium Supplementation (asparaginase I [2]; Rhodococcus sp. DAP 96253 (ATCC 55899), 30 °C): 7.8 Units/mg cdw
- Nitrile Hydratase Activity (nitrile hydratase [3]; [10]): 162.23 Units/mg cdw
- Amidase Activity (amidase [4]; [10]): 7.59 Units/mg cdw

SMILES: NC(=O)C[C@H](N)C(=O)O [Asparagine, asparagine]
- amidase produced at end of fermentation (amidase [5]): 22 units per milligram cell dry weight
- acrylonitrile specific nitrile hydratase produced at end of fermentation [6]: 159 units per milligram cell dry weight
- Asparaginase I levels (asparaginase I [1]; YEMEA - Glucose, With Cobalt): 6.5 units/mg cell dry weight
- Asparaginase I levels (asparaginase I [1]; [11]): 5.3 units/mg cell dry weight
- Asparaginase I levels (asparaginase I [1]; [12]): 8.7 units/mg cell dry weight
- nitrile hydratase induction compared with acrylonitrile (nitrile hydratase [3]): exceeds the ability of acrylonitrile to induce such activity
- asparaginase I produced at end of fermentation (asparaginase I [7]): 16 units per milligram cell dry weight
- amidase activity greater than the amidase activity resulting from the use of acrylonitrile (amidase [4]): approximately 74%

SMILES: [Co] [Cobalt]
- effect of medium additive on asparaginase I activity (asparaginase I [1]): resulted in improvements

- Asparaginase I Level Based on Growth Medium Supplementation (asparaginase I [2]; Pseudomonas chloroaphis ATCC 43051, 30 °C): No
- Nitrile Hydratase Level Based on Growth Medium Supplementation (nitrile hydratase [8]): No
- Amidase Level Based on Growth Medium Supplementation (amidase [9]): No
SMILES: NC(=O)CC[C@H](N)C(=O)O [Glutamine, glutamine]
- Asparaginase I levels (asparaginase I [1]; YEMEA - Glucose, With Cobalt): 1.9 units/mg cell dry weight
- Asparaginase I levels (asparaginase I [1]; [11]): 1.5 units/mg cell dry weight
- Asparaginase I levels (asparaginase I [1]; YEMEA - Maltose, With Cobalt): 8.1 units/mg cell dry weight
- Asparaginase I levels (asparaginase I [1]; [12]): 9.3 units/mg cell dry weight
- ability to induce asparaginase I activity (asparaginase I [1]): showed an ability to induce asparaginase I activity
- nitrile hydratase induction compared with acrylonitrile (nitrile hydratase [3]): exceeds the ability of acrylonitrile to induce such activity
- amidase activity greater than the amidase activity resulting from the use of acrylonitrile (amidase [4]): approximately 37%

SMILES: CC(C)CC#N [Isovaleronitrile, isovaleronitrile, reference compound]
- Asparaginase I levels (asparaginase I [1]; YEMEA - Glucose, With Cobalt): 2.9 units/mg cell dry weight
- Asparaginase I levels (asparaginase I [1]; [11]): 3.5 units/mg cell dry weight
- Asparaginase I levels (asparaginase I [1]; YEMEA - Maltose, With Cobalt): 7.0 units/mg cell dry weight
- Asparaginase I levels (asparaginase I [1]; [12]): 6.8 units/mg cell dry weight

SMILES: N#CCCC#N [Succinonitrile, succinonitrile, reference compound]
- Asparaginase I levels (asparaginase I [1]; YEMEA - Glucose, With Cobalt): 8.5 units/mg cell dry weight
- Asparaginase I levels (asparaginase I [1]; [11]): 6.5 units/mg cell dry weight
- Asparaginase I levels (asparaginase I [1]; YEMEA - Maltose, With Cobalt): 10.0 units/mg cell dry weight
- Asparaginase I levels (asparaginase I [1]; [12]): 11.0 units/mg cell dry weight
- ability to induce asparaginase I activity (asparaginase I [1]): showed an ability to induce asparaginase I activity
